Series [1] is described as follows: Molar absorptivity determination.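 Further: molar absorptivity derived from UV-Vis absorbance spectra recorded for each derivative on a spectrometer.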 The series is classed as physicochemical.
Method: The absorbance spectrum of each derivative (150 μL) was measured on a Thermo Scientific Genesys 150 UV-Vis spectrometer, using 50:50 ACN/PBS as a blank.
Molar absorptivity determination. […] The absorbance spectrum of each derivative (150 μL) was measured on a Thermo Scientific Genesys 150 UV-Vis spectrometer, using 50:50 ACN/PBS as a blank.
Series [2] can be described thus: Fluorescence lifetime measurements (TCSPC). It is filed as physicochemical. The note with it: for Fluorescence Lifetime: ACN/PBS buffer (1:1 v/v); for Lifetime: ACN/PBS buffer (50:50 v/v), excitation 340 nm. As for the experimental part: Time correlated single photon counting (TCSPC) measurements of fluorescence lifetime decays for 100 μM solutions of dyes (6, 7c, 7e, 7f, and 7g) in ACN/PBS buffer (50:50 v/v) were collected with the PTI Quantamaster™ 40 using a pulsed LED with a maximum emission at 340 nm. Fluorescence emission was collected at the indicated wavelength for each dye with 20 nm slit widths. The instrument response function (IRF) was collected under identical conditions. Data analysis was performed with FluoFit software (PicoQuant GmbH; Berlin, Germany) using an exponential decay model.
Fluorescence lifetime measurements. Time correlated single photon counting (TCSPC) measurements of fluorescence lifetime decays for 100 μM solutions of dyes (3 and 5c-f) in ACN/PBS buffer (50:50 v/v) were collected with the PTI Quantamaster™ 40 using a pulsed LED with a maximum emission at 340 nm. Fluorescence emission was collected at the indicated wavelength for each dye with 20 nm slit widths. The instrument response function ([…]) was collected under identical conditions. Data analysis was performed with FluoFit software (PicoQuant GmbH; Berlin, Germany) using an exponential decay model. […] FIG. 64D Fluorescence spectra of 5i-5k. […] Fluorescence spectra were measured at their maximum absorption wavelength. FIGS. 66A-66K show representative QY acquisitions of 3 and 5a-f, 5h-k in ACN/PBS buffer (50:50). All had consistent excitation (360 nm) and spectral collection (350-800 nm) parameters. Final concentration of the probe is 500 μM. Black line indicates incident light and blue line indicates sample spectrum. […] All had consistent excitation (360 nm, slit width 10 nm) and spectral collection (350-800 nm) parameters. Final concentration of the probe is 500 µM. Black line indicates incident light and blue line indicates sample spectrum. FIG. 68: Effect of pH on absorption and emission of 5h and 5j. […] For pH screening of 5h and 5j, PBS buffer solutions were prepared, then adjusted the pH 2, 4, and 7 by adding 6 M hydrochloric acid, pH 9 and 11 by adding 5 M sodium hydroxide. Emission spectra were measured by the excitation wavelength 354 nm for 5h and 385 nm for 5j. […] Lifetime measurements with exponential fits shown at left and residuals after fitting shown at right.

The nature of series [3]: Absorbance measurements (UV-Vis). The note with it: for Absorbance Wavelength: ACN:PBS buffer (50:50 v/v); for Abs. λabs: 25 μM.
Method: Samples were individually diluted to the final concentration of 25 μM (500 μL) using 50:50 acetonitrile in phosphate buffered saline (ACN/PBS). The absorbance spectrum of each derivative (150 μL) was measured on a Thermo Scientific Genesys 150 UV-Vis spectrometer, using 50:50 ACN/PBS as a blank.
Series [4] is described as follows: Fluorescent quantum yield (QY) measurements. The series is classed as physicochemical. The note with it: for Fluorescence QY: ACN/PBS buffer (1:1 v/v); for Fluorescence quantum yield: in ACN. The procedure: For each QY measurement, the incident excitation light spectrum was collected with 1 mL of solvent. […] Using the JASCO Quantum Yield Software, the dye QY was calculated by dividing the dye fluorescence intensity by the difference in incident light intensity in the presence and absence of dye. The minimum excitation wavelength for a full excitation incident spectrum using this setup is 360 nm.
Fluorescent quantum yield (QY) measurements. For each QY measurement, the incident excitation light spectrum was collected with 1 mL of solvent. After measuring the incident light intensity, dye (3 and 5a-5k) was added to the solvent from a concentrated stock solution to a final concentration of […] and the new spectrum (fluorescence intensity and new incident light intensity) was collected. Using the JASCO Quantum Yield Software, the dye QY was calculated by dividing the dye fluorescence intensity by the difference in incident light intensity in the presence and absence of dye. The minimum excitation wavelength for a full excitation incident spectrum using this setup is 360 nm.

Series [5] in a line: Fluorescence (emission) measurements.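 Further: fluorescence emission spectra recorded on a spectrofluorometer, with each compound excited at its own absorption maximum.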 The series is classed as physicochemical.
Method: The fluorescence spectrum of each derivative (150 μL) was measured on a Photon Technology International (PTI) QuantaMaster™ 40 fluorescence spectrometer by excitation at the maximum absorption wavelength for each compound.
The fluorescence spectrum of each derivative (150 μL) was measured on a Photon Technology International (PTJ) QuantaMaster™ 40 fluorescence spectrometer by excitation at the maximum absorption wavelength for each compound.
Series [6] can be described thus: Solvatochromic measurements. The series is classed as physicochemical. The note with it: organic solvents of different polarity. As for the experimental part: The remaining 850 μL solution was used to obtain fluorescence images under a handheld 365 nm UV lamp.
Solvatochromic measurements. […] The remaining 850 μL solution was used to obtain fluorescence images under a handheld 365 nm UV lamp.

The mark [7] stands for this setting: ACN/PBS buffer (1:1 v/v), pH 7.4.
Setting [8] is: in ACN, at maximum absorption wavelength.
Setting [9] is: 25 μM in ACN/PBS buffer (1:1 v/v), pH 7.4.

In the case of `Cc1ccc(/C=C/c2c(C)c(=O)n3c(=O)c(C)c(C)n23)cc1` [Compound 7f, (E)-2,3,6-trimethyl-5-(4-methylstyryl)-1H,7H-pyrazolo[1,2-a]pyrazole-1,7-dione], the results for the “Molar Absorptivity (ε)” value in series [1] (setting [7]) and in series [1] (setting [8]) were 21164 M⁻¹ cm⁻¹ and 24426 M⁻¹ cm⁻¹, respectively. Moreover, the “Fluorescence Lifetime” value in series [2] turned out to be 1.28 ns. Besides, the Lifetime in series [2] (Table 4) and in series [2] (Table S13) was 1.28 ± 0.004 ns throughout. Further, the “Absorbance λmax” value in series [3] (25 μM in ACN) turned out to be 325 nm; in series [3] (setting [9]), 332 nm. The “Absorbance Wavelength” value in series [3] (Table 11) and in series [3] (Table S14) was 332 nm each time. Besides, the “Fluorescence QY” value in series [4] was found to be 3.0%. Also, the Fluorescence quantum yield in series [4] and in series [4] (Table S12) was 3.4% in each case. For the same molecule, the “Emission λmax” value in series [5] (setting [9]) amounted to 503 nm. In addition, the Stokes shift is 171 nm in series [5] (ACN/PBS buffer (1:1 v/v)) and 165 nm in series [5] (in ACN).
Regarding `Cc1c(C)n2c(/C=C/c3ccc(C#N)cc3)c(C)c(=O)n2c1=O` [Compound 7b, (E)-4-(2-(2,5,6-trimethyl-1,7-dioxo-1H,7H-pyrazolo[1,2-a]pyrazol-3-yl)vinyl)benzonitrile], the “Molar Absorptivity (ε)” value worked out at 38995 M⁻¹ cm⁻¹ in series [1] (setting [7]) and 43238 M⁻¹ cm⁻¹ in series [1] (setting [8]). The “solvatochromism / environmental sensitivity” value in series [6] is listed as “no significant solvatochromism”. Besides, the “Absorbance λmax” value in series [3] (25 μM in ACN) worked out at 316 nm; in series [3] (setting [9]) it was 320 nm. Moreover, the λabs in series [3] (ACN/PBS) is 320 nm. Moreover, the “Absorbance Wavelength” value in series [3] (Table 11) and in series [3] (Table S14) was 320 nm each time. In series [4], the “Fluorescence QY” value was 0.8%. Also, the Fluorescence quantum yield in series [4] and in series [4] (Table S12) was 1.4% each time. Further, the “Emission λmax” value is 522 nm in series [5] (25 μM in ACN) and 520 nm in series [5] (setting [9]). In addition, the “Emission λem” value in series [5] (25 μM in ACN, Table S12) stood at 522 nm. The values for the Stokes shift in series [5] (ACN/PBS buffer (1:1 v/v)) and in series [5] (in ACN) were 200 nm and 206 nm, respectively.
Turning to `COc1ccc(/C=C/c2c(C)c(=O)n3c(=O)c(C)c(C)n23)cc1` [Compound 7g, (E)-3-(4-methoxystyryl)-2,5,6-trimethyl-1H,7H-pyrazolo[1,2-a]pyrazole-1,7-dione], the figures for the “Molar Absorptivity (ε)” value in series [1] (setting [7]) and in series [1] (setting [8]) were 25659 M⁻¹ cm⁻¹ and 34554 M⁻¹ cm⁻¹, respectively. Moreover, the “Fluorescence Lifetime” value in series [2] came to 1.31 ns. Besides, the Lifetime in series [2] (Table 4) and in series [2] (Table S13) was 1.31 ± 0.004 ns each time. For the same molecule, the “Absorbance λmax” value in series [3] (25 μM in ACN) stood at 342 nm; in series [3] (setting [9]) it was 348 nm. For the same molecule, the “Absorbance Wavelength” value in series [3] (Table S14) came out at 348 nm. The “Fluorescence QY” value in series [4] is reported as 3.3%. Besides, the Fluorescence quantum yield in series [4] and in series [4] (Table S12) was 3.5% each time. In series [5] (setting [9]), the “Emission λmax” value was found to be 504 nm. Further, the results for the Stokes shift in series [5] (ACN/PBS buffer (1:1 v/v)) and in series [5] (in ACN) were 156 nm and 146 nm, respectively.
`Cc1c(C)n2c(/C=C/c3ccc(N=[N+]=[N-])cc3)c(C)c(=O)n2c1=O` [Compound 7d, (E)-3-(4-azidostyryl)-2,5,6-trimethyl-1H,7H-pyrazolo[1,2-a]pyrazole-1,7-dione]: the “Molar Absorptivity (ε)” value in series [1] (setting [7]) stood at 27699 M⁻¹ cm⁻¹; in series [1] (setting [8]), 36055 M⁻¹ cm⁻¹. The entries for the “Absorbance λmax” value in series [3] (25 μM in ACN) and in series [3] (setting [9]) were 339 nm and 350 nm, respectively. In addition, the “Fluorescence QY” value in series [4] stood at 1.3%. Further, the Fluorescence quantum yield in series [4] worked out at 1.5%. For the same molecule, the “Emission λmax” value in series [5] (setting [9]) amounted to 502 nm. Also, the Stokes shift is 152 nm in series [5] (ACN/PBS buffer (1:1 v/v)) and 101 nm in series [5] (in ACN).
As for `Cc1c(C)n2c(/C=C/c3ccc(NC(=O)OC(C)(C)C)cc3)c(C)c(=O)n2c1=O` [Compound 7i, tert-butyl (E)-(4-(2-(2,5,6-trimethyl-1,7-dioxo-1H,7H-pyrazolo[1,2-a]pyrazol-3-yl)vinyl)phenyl)carbamate], the “Molar Absorptivity (ε)” value was 34826 M⁻¹ cm⁻¹ in series [1] (setting [7]) and 37555 M⁻¹ cm⁻¹ in series [1] (setting [8]). Besides, the figures for the “Absorbance λmax” value in series [3] (25 μM in ACN) and in series [3] (setting [9]) were 348 nm and 356 nm, respectively. Besides, the “Absorbance Wavelength” value in series [3] (Table 11) came out at 354 nm. The “Fluorescence QY” value in series [4] amounted to 3.4%. Besides, the Fluorescence quantum yield in series [4] and in series [4] (Table S12) was 3.4% throughout. For the same molecule, the “Emission λmax” value in series [5] (setting [9]) amounted to 505 nm. Also, the “maximum emission wavelength (λem)” value in series [5] (50:50 ACN/PBS, excitation at λabs) is listed as 583 nm. In addition, the Stokes shift in series [5] (ACN/PBS buffer (1:1 v/v)) came to 149 nm; in series [5] (in ACN), 142 nm.
For `Cc1c(C)n2c(/C=C/c3ccc(F)cc3)c(C)c(=O)n2c1=O` [Compound 7c, (E)-3-(4-fluorostyryl)-2,5,6-trimethyl-1H,7H-pyrazolo[1,2-a]pyrazole-1,7-dione], the “Molar Absorptivity (ε)” value was found to be 23796 M⁻¹ cm⁻¹ in series [1] (setting [7]) and 28940 M⁻¹ cm⁻¹ in series [1] (setting [8]). Further, the “Fluorescence Lifetime” value in series [2] is 1.07 ns. The Lifetime in series [2] (Table 4) and in series [2] (Table S13) was 1.07 ± 0.003 ns each time. Further, the “Absorbance λmax” value in series [3] (25 μM in ACN) came to 315 nm; in series [3] (setting [9]), 321 nm. Besides, the “Absorbance Wavelength” value in series [3] (Table 11) and in series [3] (Table S14) was 321 nm each time. Besides, the “Fluorescence QY” value in series [4] amounted to 2.5%. In addition, the Fluorescence quantum yield in series [4] and in series [4] (Table S12) was 2.8% in each case. In series [5] (setting [9]), the “Emission λmax” value is given as 502 nm. The Stokes shift came to 181 nm in series [5] (ACN/PBS buffer (1:1 v/v)) and 177 nm in series [5] (in ACN).
On to `COc1ccc2nc(/C=C/c3c(C)c(=O)n4c(=O)c(C)c(C)n34)sc2c1` [Compound 8d, (E)-3-(2-(6-methoxybenzo[d]thiazol-2-yl)vinyl)-2,5,6-trimethyl-1H,7H-pyrazolo[1,2-a]pyrazole-1,7-dione], for which the ε in series [1] (ACN only) stood at 22961 M⁻¹ cm⁻¹; in series [1] (ACN:PBS (50:50 v/v)) it was 22575 M⁻¹ cm⁻¹. In addition, the “Abs. λabs” value came out at 367 nm in series [3] (ACN only) and 373 nm in series [3] (ACN:PBS (50:50 v/v)). Further, the Q.Y. in series [4] (ACN only) stood at 0.54%; in series [4] (ACN:PBS (50:50 v/v)), 0.27%. Also, the Stokes shift in series [5] (ACN only) came out at 163 nm; in series [5] (ACN:PBS (50:50 v/v)), 157 nm.

(Values after patent publication US20240336617A1, “Substituted Bimane Compounds and Methods of Use Thereof” (THE TRUSTEES OF THE UNIVERSITY OF PENNSYLVANIA, priority 2023, published 2024).)
